One test deals with platelet aggregation. Particulars: cited from earlier work.
Test [1] has as its target T1, prenylated protein methyltransferase (PPMTase) (Rattus norvegicus, UniProt Q9WVM4).
T1 construct: from tissue; host or cells: rat cerebellum, synaptosomal membranes
The test can be described thus: Methylation of AFC by PPMTase in rat cerebellar synaptosomal membranes. It is filed as biochemical. Particulars: for Ki: Table II, given as range, read-out: Ki. From the text: As a substrate for methylation served AFC and as the donor of methyl served [methyl-H^3] labelled AdoMet. As a source of the enzyme prenylated protein methyltransferase (PPTMase) served rat cerebellar membranes which are known to be membranes enriched with this enzyme (Ben-Baruch, Biochem. Biophys. Res. Commun., 195, 282-288. (1993)).
Charles River adult male rats were used for preparation of cerebellar synaptosomal membranes. Cerebella were removed after decapitation and homogenized in 0.32M sucrose containing 50 mM Tris-HCl pH 7.4, 3 mM EDTA, 1 mM EGTA, 5 unit/ml aprotinin and 5 μg/ml pepstatin (buffer A) to yield 10% (w/v) homogenates. Nuclear fractions were obtained by 10 min. 600×g centrifugation and synaptosomal fractions were obtained by 20 mins. 14,500×g centrifugation. Membranes of the various cell types used were prepared in the above buffer A by a 60 min. spin at 100,000×g.
Pellets were resuspended in the homogenization buffer and stored at −70° C. Methylation assays were performed at 37° C. in 50 mM Tris-HCl buffer pH 7.4, using 75-125 μg protein, 25 μM [methyl-^3H]AdoMet ([…] in DMSO) in a total volume of 50 μl. DMSO concentration in all assays was 4%.
Reactions were terminated after 10 min. by adding 500 μl chloroform methanol (1:1) and a subsequent addition of 250 μl H2O, mixing them and subsequently by phase separation. A portion of 125 μl of the chloroform phase was dried down at 40° C. and 200 μl of 1M NaOH/1% SDS solution were added thereto. The [^3H]methanol thus formed was counted by the vapor phase equilibrium method as described previously (Hakiai et al., Cell Mol. Neurobiol., 11, 415-431, (1991); Lenner et al., Cell Mol. Neurbiol., 12, 333 and 3351, (1992); Ben-Baruch et al., Biochem. Biophy. Res. Commun., 195, 282-288, (1993)). Typical background counts (i.e. counts of methylation with no AFC added) were 50-100 cpm while typical methylation counts with AFC as a substrate yielded 500 to 6000 cpm. Assays were performed in triplicate and background counts subtracted. Methylation of endogenous substrates, in intact cells, and [α-^32P] GTP-blot overlay assays and gel electrophoreses were performed as detailed previously (Hakiai et al., supra (1991); Lenner et al., supra (1993)).

Test [2] deals with ras-transformed NTH3T3 cells. Particulars: cited from earlier work.
The subject of the next test is ras methylation. Particulars: ras-transformed NTH3T3 cells; cited from earlier work.
A further test relates to neutrophils chemotaxis. Particulars: cited from earlier work.
Test [3] relates to Ha-ras-transformed rat1 cells. Briefly: Growth of ras-transformed rat1 cells (cell counting). Format: cell-based, rat. Particulars: for EC50: Rattus norvegicus, 168 h, day 7 of drug treatment, estimated from dose response curves, read-out: Inhibition of rab-transformed rat1 cell growth EC50; for effects on cell growth of ras-transformed rat1 cells: drug concentrations up to 200 μM. The text has this: The cell lines employed were rat1, -EJ, which are rat1 cells stably expressing Val- 12 activated human Ha-ras gene (Land H. et al., Nature, 304, 596-602, (1983)); V-raf-3T3, which are 3T3 cells stably expressing the V-raf gene (Xu, N., et al., Proc. Natl. Acad. Sci., 90, 6741-6745); RB-22, which are 3T3 cells stably expressing the rat Erb-B2 gene (Peles, et al., EMBO J., 10, 2077-2086 (1991)) CO6O cells (SV40-CHO), which are CHE cells stably expressing the SV-40 T-antigen gene (Lavi, Proc. Natl. Acad. Sci., 78, 6144-6148 (1981)); human endometrial carcinoma cell line HEC1A, which are cells that express activated K-ras (Enomoto T., Cancer Res., 50, 6139-6145; mouse B16F10 melanoma cells, rat pheochromocytoma PC12 cells, […] cells CHE and COS cells.
HEC1A, V-raf-3T3 and SV40-CHE cells were grown in Dulbecco's modified Eagle medium (DMEM) containing 10% fetal calf serum (FCS), 4 mM L-glutamine, 10 μg/ml streptomycin and 10 U/ml penicillin. Rat1 and -EJ cells were grown in the same medium except that it was supplemented with 12.5 U/ml nyostatin. RB-22 cells were grown in modified DMEM (1 mM sodium pyruvate, 20 mM sodium bicarbonate)/10% FCS containing 4 mM L-glutamine, […] streptomycin, 10 U/ml penicillin. PC-12 cells were grown in DMEM 15% FCS/5% horse serum and the above noted antibiotics.
HEC1A cells were plated in 24 well plates at a density of 5×10^3 cells per well and fed with 1 ml of medium. The cells were grown at 37° C. in a humidified atmosphere of 95%/5% air/CO2. All other cell types employed were plated in 24 well plates at a density of 2×10^3 cells per well and fed with the appropriate medium.
Cultures were treated with farnesyl derivatives or with solvent either 3 hrs following plating or one day after plating as indicated. […] Control cultures received 0.1% DMSO only. Cultures were fed on days 6, 7 and 9 of the experiment with the drugs or with solvent-containing media.
Cells were counted following 3, 7 and 10 days of beginning of treatments with drugs. For counting, cells were detached from plates with trypsin/EDTA, and collected by a low speed spin in the presence of DMEM/10% FCS. The pelleted cells were resuspended in a small volume of DMEM/10% FCS and counted under the microscope. Viability of cells was estimated by staining with (3-(4,5-dimethylthiosol-2-yl)-2,5-diphenyltetrazolium bromide (MTT) and microscopic examination of the stained and unstained cells, or spectrophotometric estimation (OD490, 590) of the total stain in each well. Non viable cells were estimated by the trypan blue exclusion method.
Cells were plated at a density 2×10^3/well and received either solvent or drugs one day later. Following 3, 7, or 10 days of the drugs-treatment as described above, cells were collected and the number of cells in each well was estimated by direct counting. […] The effect was apparent after a delay of at least three days. About 40-60% inhibition of cell growth was induced either by FTA or by FTS observed on days 7 and 10 of the treatment.

T1 sequence (Q9WVM4 whole entry): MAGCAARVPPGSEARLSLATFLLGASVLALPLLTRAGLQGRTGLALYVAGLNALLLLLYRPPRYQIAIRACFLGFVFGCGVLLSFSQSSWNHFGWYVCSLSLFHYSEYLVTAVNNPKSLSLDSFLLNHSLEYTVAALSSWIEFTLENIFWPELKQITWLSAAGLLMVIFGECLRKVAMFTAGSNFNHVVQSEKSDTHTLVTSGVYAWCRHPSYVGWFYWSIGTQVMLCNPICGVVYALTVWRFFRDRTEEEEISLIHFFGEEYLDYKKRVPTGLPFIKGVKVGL

On to `CC(=O)N[C@@H](CSC/C=C(\C)CC/C=C(\C)CCC=C(C)C)C(=O)O` (stereo in doubt) [AFC, N-acetyl-trans-trans-farnesyl-L-cysteine], for which the “inhibition of platelet aggregation” value with platelet aggregation was “inhibit”. In addition, the “[3H-methyl]ester formed” value in test [1] (100 μM AFC alone as substrate) is given as 3200 ± 130 cpm/assay; in test [1] (200 μM of the substance alone as substrate), 3700 ± 150 cpm/assay. In test [2], the “inhibition of cell growth” value is reported as “does not inhibit their growth”. Moreover, in the test on ras methylation, the “inhibition of ras methylation” value is given as “can inhibit ras methylation”. Besides, the “inhibition of neutrophils chemotaxis” value in the test on neutrophils chemotaxis is reported as “inhibit”.
For the molecule `CC(C)=CCC/C(C)=C/CC/C(C)=C/CSc1ccc(N)cc1C(=O)O` [5-amino FTS], in test [3], the EC50 was more than 200 µM and the “effects on cell growth of ras-transformed rat1 cells” value is “not active”. Moreover, in test [1], the “serves as substrate for PPMTase methylation” value was “do not serve as substrates” and the Ki fell in the range of 66.1 to 80.5 µM.
`CC(C)=CCC/C(C)=C/CC/C(C)=C/CNc1ccc(Cl)c(C(=O)O)c1` [NFCB, 2-chloro-5-farnesylaminobenzoic acid]: in test [3], the EC50 is 20 to 40 µM; the “effects on cell growth of ras-transformed rat1 cells” value was “effects similar to those observed with FTS and FTA”. Further, in test [1], the “serves as substrate for PPMTase methylation” value was “do not serve as substrates” and the Ki was 6.6 to 9.5 µM.

Broadly, the EC50 is the concentration giving half of the maximal effect. By Ki is commonly meant a dissociation constant, usually derived from enzyme kinetics or from competition with a known ligand.
